For 94 compounds, melting point results are on record in a melting point compilation (Tetko et al.; mined from patent text by program, amines drawn as free bases though some values may be those of a salt).

The melting point is the temperature of the solid-liquid transition.

`COC(=O)C1=C(C)NC(C)=C(C(=O)OCCCCCCCCN)C1c1cccc([N+](=O)[O-])c1` (centres undefined) yielded a melting point of 129 to 131 °C.

As for `O=C(Oc1cccc(C(F)(F)F)c1)n1c2c(c(=O)n(C3CCCCO3)c1=O)CCC2` (centres undefined), the melting point was 130 °C. As to `CCN(CC)c1ccc2nc3c4ccc(Br)cc4c(=Nc4ccncc4)cc-3oc2c1`, the melting point was 269 to 271 °C. `CCOc1ccccc1-c1nc2cc3nc[nH]c3cc2c(=O)[nH]1`: the melting point lay within 194 to 196 °C. As for `COc1ccc(C(=O)Nc2c(Cl)cncc2Cl)c2c1OC(C)(C)C=C2`, the melting point was 174 to 178 °C. Compound `CC(C)=CC=C(C#N)c1ccccc1` gave a melting point of 66 to 67 °C. `CC(C)Cn1c(CNC(=O)OC(C)(C)C)c(-c2ccccc2)c2cc(CCC(=O)O)ccc2c1=O` registered a melting point of 182 to 183 °C. With `OCC(CO)CCOc1ccccc1`, the melting point lay in the range of 71 to 73 °C. To `CC(C)(C)OC(=O)NCCCn1nnnc1S` belongs 75 to 77 °C. On to `CSC(C)(C)C=NOC(=O)N(C)SN(C)C`, for which the melting point was in the range of 48 to 50 °C.

As for `CCOC(=O)c1ncn2c1CN(C)C(=O)c1cc(C(F)(F)F)ccc1-2`, the melting point lay in the range of 179 to 180 °C. `COc1ccc(NN=C(Sc2cccc(Cl)c2)C(C)=O)cc1` gave a melting point of 132 to 134 °C.

`Cc1nccc(C#N)c1OC1SCC(O)C(O)C1O` (centres undefined) gave a melting point of 161 °C. For `CCN1C(=O)N(c2cc(OC)cc(OC)c2)Cc2cnc(SC)nc21`, the melting point is 134 to 136 °C. `COc1ccc(N2CCOCC2)c2sc(-c3ncc(-c4csc5ccccc45)[nH]3)nc12` yielded a melting point of 161 to 162 °C. `O=C(O)Cc1cccc2c1N=C(c1ccccc1F)CC2=O` yielded a melting point of 243 to 245 °C.

Take `C=CCN(c1ccccc1)c1ncc(C(C)C(=O)O)s1` (centres undefined): the melting point lay within 134 to 135 °C. For `CNC(=O)N(O)C(C)c1ccc(Cl)c(C)c1` (centres undefined), the melting point fell in the range of 99 to 102 °C. For `CCCn1c(=O)nc(NNC(C)=O)c2[nH]c(C3CCCC3)nc21`, the melting point was greater than 270 °C. Consider `CC(C)(C)CN1C(=O)[C@H](CC(=O)O)O[C@@H](c2ccccc2Cl)c2cc(Cl)ccc21`, for which the melting point lay in the range of 241 to 245 °C. In turn, `CCOC(=O)c1cnc(C(=O)O)cn1` returned a melting point of 150 to 153 °C.

Compound `CCOC(=O)C1CCc2c([nH]c3ccc(N)cc23)C1` (centres undefined) had a melting point of 123 to 124 °C. On to `COc1ccccc1CC(=O)N1C[C@@H]2[C@H](C1)[C@@](O)(c1ccccc1OC)[C@H](O)CC2(c1ccccc1)c1ccccc1` (racemic), for which the melting point was 278 °C. Then `O=C1c2ccccc2C(=O)N1CCCOc1cccc2c(O)nccc12`, with greater than 300 °C; and `CCCC1=C(C#N)C(c2cccnc2)c2c[nH]nc2N1` (centres undefined), with 201 °C; and `Nc1nc(N)c2c(ccc3c2ccn3Cc2ccc(Cl)cc2Cl)n1`, with 249 to 250 °C. As to `Sc1nccn1Cc1ccc(Cl)cc1`, the melting point is 187 to 189 °C. The compound `Oc1ccc(O)c2cc3ccccc3cc12` showed a melting point of 167 to 169 °C. In the case of `CCc1ccc(C=Nc2ccc(C#N)cc2)cc1`, the melting point lay in the range of 76.2 to 77 °C. The compound `ClCCN1C2C=C(c3ccc4ccccc4c3)CC1CC2` (centres undefined) yielded a melting point of 122 to 123 °C.

As to `NC(=O)c1cnn2c(=O)n(CCCl)nnc12`, the melting point fell in the range of 193 to 194 °C. `COC(=O)c1cc(N(C)C)c2cc(Cc3ccc(F)cc3)cnc2c1O` had a melting point of 62 to 63 °C.

Consider `Cc1nc(-c2ccccc2)nc(-c2cccc([N+](=O)[O-])c2)c1CN`, for which the melting point fell in the range of 145 to 147 °C. Compound `N#Cc1ncn2c1[C@@H]1CCN1C(=O)c1sccc1-2` gave a melting point of 211 to 213 °C. Regarding `CNC(=O)c1ccccc1C(=O)NCSc1ccncc1`, the melting point fell in the range of 118 to 121 °C. Compound `COc1ccc(C2=C(/C=C/C(=O)Oc3ccc([N+](=O)[O-])cc3)CCc3cc(OC)ccc32)cc1` had a melting point of 151 to 152 °C. In the case of `O=C1N(Cc2ccccc2)c2cc(Cl)cc(N3CCNCC3)c2S(=O)(=O)N1Cc1cccc(O)c1`, the melting point was 230 to 231 °C.

Compound `O=C1CSCN1c1cc(Cl)cc(Cl)c1` gave a melting point of 87 to 92 °C.

As to `O=C(Cl)N1CC(Oc2cccc(Br)c2)C1`, the melting point lay within 87 to 88 °C. Compound `CC(/C=C1/C(=O)N(c2ccccc2)C1c1ccccc1)=NOCCCN1CCCCC1` (centres undefined) registered a melting point of 120 to 122 °C. `O=C1NCCNC1c1ccc(F)cc1` (racemic) returned a melting point of 115 °C. Compound `Cc1cc(-c2cn(-c3cccc(OCCn4ccnc4)c3)c3ncnc(N)c23)ccc1OCc1ccccc1` returned a melting point of 158 to 160 °C. As for `COc1ccc(Cn2cnc3c(-c4ccco4)nc(N(C)C)nc32)cc1`, the melting point was in the range of 163 to 164 °C. Then `COc1cc2c(Nc3cccc(Cl)c3F)ncnc2cc1OC1CCN(C(=O)CC(C)(C)O)CC1`, with 196 to 199 °C; and `N#CC=C1CCN(c2ccc(N3C[C@H](CNC(=O)C(F)F)OC3=O)cc2F)CC1`, with 162 to 164 °C. Take `CCCOC(=O)C1=C(C)NC(C(OC)OC)=C(C(=O)OC)C1c1ccccc1C#N` (centres undefined): the melting point fell in the range of 139 to 141 °C. Then `N#CC1CCN(CCc2ccc(F)cc2)CC1`, with 47 to 48 °C.

With `CCCCCCCCCCCCc1ccccc1C(Sc1ncc(C(=O)O)n1C)C(O)CCC(=O)O` (centres undefined), the melting point fell in the range of 79 to 80 °C.

Turning to `CC1(C)CC(=O)C(c2cccc(Cl)c2)C(=O)C1`, the melting point lay in the range of 155 to 158 °C. Then `CCCN(Cc1ccc(-c2ccccc2-c2nc(=O)s[nH]2)cc1)c1nc2ccccc2cc1C(=O)O`, with 118 to 124 °C. `Cn1nc2ccc3nc(O)c(O)nc3c2n1` showed a melting point greater than 300 °C. The compound `CCCCOc1c(CNC(=O)OC(C)(C)C)n(CC(C)C)c(=O)c2ccc(C(=O)N(C)OC)cc12` displayed a melting point of 142 to 143 °C. As for `Clc1cccc(Oc2ccc(OCc3cc(C4CC4)no3)cc2)n1`, the melting point was in the range of 128 to 130 °C.

Compound `CNC(=S)N1CCN(c2cnccn2)CC1` yielded a melting point of 197 to 200 °C. To `COC(=O)c1ccc(N)c(C=C(Br)Br)c1` belongs 112 to 113 °C. For the compound `CCOC(=O)C1(C(=O)N(C)c2cccc3cc(-c4nccs4)[nH]c23)CCC1`, the melting point was determined as 197 °C. In turn, `CC(C)(C)OC(=O)NCc1ccc(N)cc1` gave a melting point of 74.4 °C. Consider `CC12CCC(=O)N1CCCN2C(=O)C(Cl)Cl` (centres undefined), for which the melting point fell in the range of 144 to 147 °C. With `CCOC(=O)c1c(O)c2cccnc2n(CC)c1=O`, the melting point fell in the range of 120 to 122 °C. `CCCCC1(N(C)C)CC=C(c2c[nH]c3ncccc23)CC1` (centres undefined) returned a melting point of 142 to 145 °C. In the case of `COC(=O)CN1C(=O)c2ccc3ccccc3c2S1(=O)=O`, the melting point was found to be 188 °C.

Take `O=C(CCCCCCNC(=O)C(=O)c1cn2c3c(cccc13)CCC2)NO`: the melting point fell in the range of 158 to 159 °C. With `CCC1CC(=O)N(Cc2cccc(NC(C)=O)c2)N=C1c1ccc(OC)c(OC)c1` (centres undefined), the melting point came out at 142 °C. The compound `CNC(=O)c1cc2c(nc(C)n2C)c2c1CCC(OC)(c1ccccc1)O2` (centres undefined) gave a melting point of 237 to 239 °C. Take `C[C@@H]1[C@H]2C(=O)N(Cc3ccccc3)C(=O)[C@H]2[C@@H](c2ccc(Br)cc2)N1C` (racemic): the melting point lay in the range of 166 to 168 °C.

On to `CCN(CC)C(=O)c1ccc2ccccc2c1-c1ccccc1`, for which the melting point fell in the range of 121 to 122 °C. Consider `CC(=O)Nc1ccc(-c2cc(C(=O)c3cccnc3)sc2N2CCOCC2)cc1`, for which the melting point stood at 144 °C. Consider `OCc1ccc2ncc(C(=S)NCc3ccc(Cl)cc3)c(O)c2c1`, for which the melting point was 240 to 242 °C. Take `C[C@@H]1N=C(c2ccccc2)c2cc(C#CCCCC(=O)NO)ccc2N(C)C1=O`: the melting point fell in the range of 101 to 103 °C.

`O=C(c1ccco1)N1Cc2c(-c3noc(C4CC4)n3)ncn2-c2ccccc21` showed a melting point of 190 to 191 °C. Turning to `O=C(O)c1cn2c3c(cc(Cl)cc3c1=O)C(O)CC2` (centres undefined), the melting point was greater than 250 °C. To `C=CCONC(=O)c1c(Cl)nn(C)c1Cl` belongs 96 to 97 °C; to `CNC(=O)N(C=O)c1cccc(C)c1`, 112 to 113 °C. As to `COc1cc(OC)cc(-c2ncn(C)c2-c2ccc(OC(F)F)c(N)c2)c1`, the melting point is 99.2 to 101 °C. To `CCc1nc2ccn(-c3ccccc3)n2c(=O)c1C(=O)O` belongs 119 to 120 °C; to `Nc1cccc(NC(=S)Nc2ccc(Cl)cc2)c1`, 132 to 134 °C. With `COc1cc(C(O)c2cnc3ccccc3c2)ccc1OCc1ccccc1` (centres undefined), the melting point was 124 to 125 °C. To `COc1ccc(CCN2CCC(C(=O)O)(S(=O)(=O)c3ccc(OC)cc3)CC2)cc1` belongs 205 °C. On to `CCCCCN(CCC12CC3CC(CC(C3)C1)C2)C(=O)NCCCc1ccccn1`, for which the melting point lay within 84.4 to 85.7 °C. The compound `O=C1CCC(N2C(=O)c3cccc(CNC(=O)Nc4ccc5ccccc5c4)c3C2=O)C(=O)N1` (centres undefined) showed a melting point of 201 to 203 °C.

As to `CSc1ccc(C(CC2CCCO2)C(=O)O)cc1Cl` (centres undefined), the melting point fell in the range of 93 to 96 °C. `O=C(Nc1ccc(F)cc1)N1CCCCN1` showed a melting point of 78.5 to 79.5 °C.

The compound `O=C(O)c1cc(-c2ccncc2)n[nH]c1=O` had a melting point greater than 310 °C.

The compound `Cc1cc(O)nc2cc(Br)ccc12` displayed a melting point of 275 to 276 °C. `CC(CCNC(=O)c1ccc(Cl)nc1)n1ccnc1` (centres undefined) displayed a melting point of 137 to 139 °C.

Take `COc1cc2c(cc1OC)C(c1ccc([N+](=O)[O-])cc1)=NN(c1ccccn1)[C@H](C)C2`: the melting point was 210 to 214 °C. Compound `CCOC(=O)c1cc(C#N)c(C)nc1NC(C)CC` (centres undefined) had a melting point of 55 to 57 °C.

The compound `COc1ccc(NC(C)=O)c(O)c1C(C)=O` returned a melting point of 160 to 162 °C. Compound `CCOC(=O)c1cc(C=O)cn1C` registered a melting point of 75 to 76 °C. The compound `CC(NS(=O)(=O)c1cc(C(=O)Cl)ccc1Cl)c1ccccc1` (centres undefined) came in with a melting point of 112 °C. For `CC(=O)NC1CCNC(c2cccc(Oc3ccccc3)n2)C1` (centres undefined), the melting point lay within 104 to 106 °C. Then `Cc1nc2scc(C)n2c(=O)c1CCN1CCC(c2c[nH]c3ccccc23)CC1`, with 275 °C; and `N#Cc1c(-c2ccccc2)c(Cl)n2c1CNCC2`, with 128 to 130 °C; and `CC(c1ccc(C=Cc2ccccc2)s1)N(O)C(N)=O` (centres undefined), with 160 to 163 °C.
